Values of other authors as cited in US20250345266A1, “READY-TO-INFUSE OXYTOCIN COMPOSITIONS” (AMNEAL PHARMACEUTICALS LLC, priority 2024, published 2025).

- half-life: about 3 minutes
Compound: CC[C@H](C)[C@@H]1NC(=O)[C@H](Cc2ccc(O)cc2)NC(=O)[C@@H](N)CSSC[C@@H](C(=O)N2CCC[C@H]2C(=O)N[C@@H](CC(C)C)C(=O)NCC(N)=O)NC(=O)[C@H](CC(N)=O)NC(=O)[C@H](CCC(N)=O)NC1=O [Oxytocin]
